Key:
Type in all cases: in vivo
[1] = system: caterpillars of the army worm (Spodoptera frugiperda); experiment: Spodoptera frugiperda test; settings: 100 ppm active compound, leaf dip
Protocol: Solvent: 7 parts by weight of dimethylformamide
Emulsifier: 2 parts by weight of alkylaryl polyglycol ether
To produce a suitable preparation of active compound, 1 part by weight of active compound is mixed with the stated amounts of solvent and emulsifier, and the concentrate is diluted with emulsifier-containing water to the desired concentration.
Cabbage leaves (Brassica oleracea) are treated by being dipped into the preparation of active compound of the desired concentration and are populated with caterpillars of the army worm (Spodoptera frugiperda) while the leaves are still moist.
After the desired period of time, the kill in % is determined. 100% means that all caterpillars have been killed; 0% means that none of the caterpillars have been killed.

[2] = system: monocotyledonous and dicotyledonous weed and crop plants; experiment: Herbicidal post-emergence action (K); settings: greenhouse, 320 g of a.i./ha, EC formulation
Protocol: K. Herbicidal Post-Emergence Action
Seeds of monocotyledonous and dicotyledonous weed and crop plants are placed into sandy loam in wood fibre pots, covered with soil and cultivated in a greenhouse under good growth conditions. 2-3 weeks after sowing, the test plants are treated at the one-leaf stage. The test compounds, formulated as wettable powders (WP) or emulsifiable concentrates (EC), are, in various dosages with a water application rate of 600 l/ha (converted), with 0.2% of wetting agent added, sprayed onto the green parts of the plants. After the test plants were kept in a greenhouse under optimum growth conditions for about 3 weeks, the effect of the preparations is rated visually in comparison to untreated controls (herbicidal effect in percent (%): 100% effect=the plants have died, 0% effect=like controlled plants).

[3] = system: larvae of the mustard beetle (Phaedon cochleariae); experiment: Phaedon larvae test; settings: 500 ppm active compound, leaf dip
Protocol: Solvent: 7 parts by weight of dimethylformamide Emulsifier: 2 parts by weight of alkylaryl polyglycol ether To produce a suitable preparation of active compound, 1 part by weight of active compound is mixed with the stated amounts of solvent and emulsifier, and the concentrate is diluted with emulsifier-containing water to the desired concentration. Cabbage leaves (Brassica oleracea) are treated by being dipped into the preparation of active compound of the desired concentration and are populated with larvae of the mustard beetle (Phaedon cochleariae) while the leaves are still moist.

Row | SMILES | Kill rate in % after 7 d [1] [%] | herbicidal effect in percent, Echinochloa ([2]; Echinochloa) [%] | herbicidal effect in percent, Setaria ([2]; Setaria) [%] | herbicidal effect in percent, Sorghum ([2]; Sorghum) [%] | herbicidal effect in percent, Sugar beet ([2]; Sugar beet) [%] | Kill rate in % after 7 d [3] [%]
1 | COC1CCC2(CC1)NC(=O)C(c1cc(-n3cc(Cl)cn3)ccc1C)=C2O (stereo not shown) [Ex. I-1-a-1] | 85 | 100 | 100 | 90 | 0 | 
2 | Cc1ccc(-n2cc(Cl)cn2)cc1C1=C(O)C2(CCCCC2)CC1=O [Ex. I-6-a-1] |  |  |  |  |  | 90
3 | Cc1ccc(-n2cc(Cl)cn2)cc1C1=C(O)CC(C)(C)CC1=O [Ex. I-7-a-1] |  |  |  |  |  | 100
